These molecules were tested on 935938-334-R-J1-PDC complex spheroid viability (assay: Anticancer human tumor 935938-334-R-J1-PDC patient-derived small intestine adenocarcinoma cell line growth inhibition [POLQ]). Conditions: curve of first compound; second compound 0.0316 µM.
In short: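 Complex spheroid viability model combining PDC tumour cells with endothelial (HUVEC) and MSC stromal cells. Novobiocin, ART-558 or RP6685 were tested singly and in combination with standard and investigational anticancer drugs. Each was titrated in half-log steps from near clinical Cmax, or from 10 microM where Cmax was unknown.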
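Further: spheroids exposed to drugs for seven days before viability read.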

O=C(Nc1ccc(O)c(NS(=O)(=O)c2ccc(F)cc2)c1)c1ccc(-c2ccccc2)cc1 + COC1C(OC(N)=O)C(O)C(Oc2ccc3c(O)c(NC(=O)c4ccc(O)c(CC=C(C)C)c4)c(=O)oc3c2C)OC1(C)C and CCCS(=O)(=O)Nc1ccc(F)c(C(=O)c2c[nH]c3ncc(-c4ccc(Cl)cc4)cc23)c1F + Cc1cccc(N(C)C(=O)C2C(O)CCN2c2nc(C)cc(C(F)(F)F)c2C#N)c1 cannot be ordered by IC50: greater than 10 µM for the first, greater than 10 µM for the second.

O=c1[nH]cc(F)c(=O)[nH]1 + Cc1cccc(N(C)C(=O)C2C(O)CCN2c2nc(C)cc(C(F)(F)F)c2C#N)c1 and CC(C)n1c(=O)n(C)c2cnc3cc(F)c(-c4ccc(OCCCN5CCCCC5)nc4)cc3c21 + Cc1cccc(N(C)C(=O)C2C(O)CCN2c2nc(C)cc(C(F)(F)F)c2C#N)c1 cannot be ordered by IC50: greater than 10 µM for the first, greater than 10 µM for the second.

Going from CC1COCCN1c1cc(C2(S(C)(=N)=O)CC2)nc(-c2ccnc3[nH]ccc23)n1 (stereo unspecified) + Nc1ccc(C#CCN(C(=O)Cc2ncc(C(F)(F)F)cc2C(F)(F)F)c2ccc(F)cc2)nn1 to COc1ccc([C@@H](O)c2cc(-c3ncnc4cc(N5CCOCC5)ccc34)c(F)cc2Cl)nn1 + Cc1cccc(N(C)C(=O)C2C(O)CCN2c2nc(C)cc(C(F)(F)F)c2C#N)c1, the IC50 rises from 3.83 µM to 6.02 µM (1.6-fold). The first is the more potent here.

COc1cccc(OCCCN)c1-c1cc(Nc2cnc(C#N)cn2)n[nH]1 + Cc1cccc(N(C)C(=O)C2C(O)CCN2c2nc(C)cc(C(F)(F)F)c2C#N)c1 was tested, and the IC50 was 0.0559 µM.

Same assay, conditions: curve of first compound; second compound 0.1 µM

First: O=C(Nc1ccc(O)c(NS(=O)(=O)c2ccc(F)cc2)c1)c1ccc(-c2ccccc2)cc1 + COC1C(OC(N)=O)C(O)C(Oc2ccc3c(O)c(NC(=O)c4ccc(O)c(CC=C(C)C)c4)c(=O)oc3c2C)OC1(C)C
Second: CCCS(=O)(=O)Nc1ccc(F)c(C(=O)c2c[nH]c3ncc(-c4ccc(Cl)cc4)cc23)c1F + Cc1cccc(N(C)C(=O)C2C(O)CCN2c2nc(C)cc(C(F)(F)F)c2C#N)c1
The IC50 of the first is higher: greater than 10 µM for the first, 9.27 µM for the second. The second is the more potent here.

O=c1[nH]cc(F)c(=O)[nH]1 + Cc1cccc(N(C)C(=O)C2C(O)CCN2c2nc(C)cc(C(F)(F)F)c2C#N)c1 and CC(C)n1c(=O)n(C)c2cnc3cc(F)c(-c4ccc(OCCCN5CCCCC5)nc4)cc3c21 + Cc1cccc(N(C)C(=O)C2C(O)CCN2c2nc(C)cc(C(F)(F)F)c2C#N)c1 cannot be ordered by IC50: greater than 10 µM for the first, greater than 10 µM for the second.

Going from CC1COCCN1c1cc(C2(S(C)(=N)=O)CC2)nc(-c2ccnc3[nH]ccc23)n1 (stereo unspecified) + Nc1ccc(C#CCN(C(=O)Cc2ncc(C(F)(F)F)cc2C(F)(F)F)c2ccc(F)cc2)nn1 to COc1ccc([C@@H](O)c2cc(-c3ncnc4cc(N5CCOCC5)ccc34)c(F)cc2Cl)nn1 + Cc1cccc(N(C)C(=O)C2C(O)CCN2c2nc(C)cc(C(F)(F)F)c2C#N)c1, the IC50 rises from 2.33 µM to 4.28 µM (1.8-fold).

For COc1cccc(OCCCN)c1-c1cc(Nc2cnc(C#N)cn2)n[nH]1 + Cc1cccc(N(C)C(=O)C2C(O)CCN2c2nc(C)cc(C(F)(F)F)c2C#N)c1, the IC50 was 0.0509 µM.

Same assay, conditions: curve of first compound; second compound 0.316 µM

First: O=C(Nc1ccc(O)c(NS(=O)(=O)c2ccc(F)cc2)c1)c1ccc(-c2ccccc2)cc1 + COC1C(OC(N)=O)C(O)C(Oc2ccc3c(O)c(NC(=O)c4ccc(O)c(CC=C(C)C)c4)c(=O)oc3c2C)OC1(C)C
Second: CCCS(=O)(=O)Nc1ccc(F)c(C(=O)c2c[nH]c3ncc(-c4ccc(Cl)cc4)cc23)c1F + Cc1cccc(N(C)C(=O)C2C(O)CCN2c2nc(C)cc(C(F)(F)F)c2C#N)c1
The IC50 of the first is higher: greater than 10 µM for the first, 9.18 µM for the second. The second is the more potent here.

O=c1[nH]cc(F)c(=O)[nH]1 + Cc1cccc(N(C)C(=O)C2C(O)CCN2c2nc(C)cc(C(F)(F)F)c2C#N)c1 and CC(C)n1c(=O)n(C)c2cnc3cc(F)c(-c4ccc(OCCCN5CCCCC5)nc4)cc3c21 + Cc1cccc(N(C)C(=O)C2C(O)CCN2c2nc(C)cc(C(F)(F)F)c2C#N)c1 cannot be ordered by IC50: greater than 10 µM for the first, greater than 10 µM for the second.

CC1COCCN1c1cc(C2(S(C)(=N)=O)CC2)nc(-c2ccnc3[nH]ccc23)n1 (stereo unspecified) + Nc1ccc(C#CCN(C(=O)Cc2ncc(C(F)(F)F)cc2C(F)(F)F)c2ccc(F)cc2)nn1 and COc1ccc([C@@H](O)c2cc(-c3ncnc4cc(N5CCOCC5)ccc34)c(F)cc2Cl)nn1 + Cc1cccc(N(C)C(=O)C2C(O)CCN2c2nc(C)cc(C(F)(F)F)c2C#N)c1 are within 1.5-fold of each other in IC50: 3.22 µM for the first, 3.2 µM for the second.

In the case of COc1cccc(OCCCN)c1-c1cc(Nc2cnc(C#N)cn2)n[nH]1 + Cc1cccc(N(C)C(=O)C2C(O)CCN2c2nc(C)cc(C(F)(F)F)c2C#N)c1, the IC50 is reported as 0.0409 µM.

Same assay, conditions: curve of first compound; second compound 1 µM

Compared with O=C(Nc1ccc(O)c(NS(=O)(=O)c2ccc(F)cc2)c1)c1ccc(-c2ccccc2)cc1 + COC1C(OC(N)=O)C(O)C(Oc2ccc3c(O)c(NC(=O)c4ccc(O)c(CC=C(C)C)c4)c(=O)oc3c2C)OC1(C)C, CCCS(=O)(=O)Nc1ccc(F)c(C(=O)c2c[nH]c3ncc(-c4ccc(Cl)cc4)cc23)c1F + Cc1cccc(N(C)C(=O)C2C(O)CCN2c2nc(C)cc(C(F)(F)F)c2C#N)c1 is lower in IC50: greater than 10 µM for the first, 9.75 µM for the second. The second is the more potent here.

O=c1[nH]cc(F)c(=O)[nH]1 + Cc1cccc(N(C)C(=O)C2C(O)CCN2c2nc(C)cc(C(F)(F)F)c2C#N)c1 and CC(C)n1c(=O)n(C)c2cnc3cc(F)c(-c4ccc(OCCCN5CCCCC5)nc4)cc3c21 + Cc1cccc(N(C)C(=O)C2C(O)CCN2c2nc(C)cc(C(F)(F)F)c2C#N)c1 cannot be ordered by IC50: greater than 10 µM for the first, greater than 10 µM for the second.

Compared with CC1COCCN1c1cc(C2(S(C)(=N)=O)CC2)nc(-c2ccnc3[nH]ccc23)n1 (stereo unspecified) + Nc1ccc(C#CCN(C(=O)Cc2ncc(C(F)(F)F)cc2C(F)(F)F)c2ccc(F)cc2)nn1, COc1ccc([C@@H](O)c2cc(-c3ncnc4cc(N5CCOCC5)ccc34)c(F)cc2Cl)nn1 + Cc1cccc(N(C)C(=O)C2C(O)CCN2c2nc(C)cc(C(F)(F)F)c2C#N)c1 is 2.6-fold higher in IC50: 2.48 µM for the first, 6.41 µM for the second.

Work on COc1cccc(OCCCN)c1-c1cc(Nc2cnc(C#N)cn2)n[nH]1 + Cc1cccc(N(C)C(=O)C2C(O)CCN2c2nc(C)cc(C(F)(F)F)c2C#N)c1 yielded an IC50 of 0.0437 µM.

Same assay, conditions: curve of first compound; second compound 3.16 µM

O=C(Nc1ccc(O)c(NS(=O)(=O)c2ccc(F)cc2)c1)c1ccc(-c2ccccc2)cc1 + COC1C(OC(N)=O)C(O)C(Oc2ccc3c(O)c(NC(=O)c4ccc(O)c(CC=C(C)C)c4)c(=O)oc3c2C)OC1(C)C and CCCS(=O)(=O)Nc1ccc(F)c(C(=O)c2c[nH]c3ncc(-c4ccc(Cl)cc4)cc23)c1F + Cc1cccc(N(C)C(=O)C2C(O)CCN2c2nc(C)cc(C(F)(F)F)c2C#N)c1 cannot be ordered by IC50: greater than 10 µM for the first, greater than 10 µM for the second.

O=c1[nH]cc(F)c(=O)[nH]1 + Cc1cccc(N(C)C(=O)C2C(O)CCN2c2nc(C)cc(C(F)(F)F)c2C#N)c1 and CC(C)n1c(=O)n(C)c2cnc3cc(F)c(-c4ccc(OCCCN5CCCCC5)nc4)cc3c21 + Cc1cccc(N(C)C(=O)C2C(O)CCN2c2nc(C)cc(C(F)(F)F)c2C#N)c1 cannot be ordered by IC50: greater than 10 µM for the first, greater than 10 µM for the second.

Going from CC1COCCN1c1cc(C2(S(C)(=N)=O)CC2)nc(-c2ccnc3[nH]ccc23)n1 (stereo unspecified) + Nc1ccc(C#CCN(C(=O)Cc2ncc(C(F)(F)F)cc2C(F)(F)F)c2ccc(F)cc2)nn1 to COc1ccc([C@@H](O)c2cc(-c3ncnc4cc(N5CCOCC5)ccc34)c(F)cc2Cl)nn1 + Cc1cccc(N(C)C(=O)C2C(O)CCN2c2nc(C)cc(C(F)(F)F)c2C#N)c1, the IC50 rises from 1.9 µM to 3.7 µM (1.9-fold).

Work on COc1cccc(OCCCN)c1-c1cc(Nc2cnc(C#N)cn2)n[nH]1 + Cc1cccc(N(C)C(=O)C2C(O)CCN2c2nc(C)cc(C(F)(F)F)c2C#N)c1 yielded an IC50 of 0.04 µM.

Same assay, conditions: curve of first compound; second compound 10 µM

O=C(Nc1ccc(O)c(NS(=O)(=O)c2ccc(F)cc2)c1)c1ccc(-c2ccccc2)cc1 + COC1C(OC(N)=O)C(O)C(Oc2ccc3c(O)c(NC(=O)c4ccc(O)c(CC=C(C)C)c4)c(=O)oc3c2C)OC1(C)C showed an IC50 greater than 10 µM.
